Laboratory results: US8530680B2, “System and method for controlling growth of microorganisms with brominated furanones” (Syracuse University, priority 2008, dated 2013)

Tests used:
[1] = test system: Gloeophyllum trabeum strain GT598; assay: Fungal growth on MEA plates with furanone; type: cell-based; design: key to growth on plate, GT598: −: No growth was observed; +: normal growth was seen; conditions: for growth on plate, GT598: 60 μg/mL, 7 days at 30° C.; for growth inhibition test, inhibitory concentration, GT598: tested at 1, 5, 30, 60 μg/mL, 7 days
Protocol: (§1) This Example examines the effect of brominated furanones on the growth of fungi associated with damage to building material. Six fungal strains were the subject of these experiments; Gloeophyllum trabeum (strains GT598 and GT599), Chaetomium globosum (wildtype strain and CG572), and Trametes versicolor (strains TV7B2-59 and TV57MAD277). The species were developed on 2% Malt-Extract Agar (MEA) plates and stored inverted at 4° C. The stocks were refreshed by streaking new plates every two months.
(§2) The brominated and non-brominated furanones were added to MAE agar plates at different concentrations. The brominated furanones were dissolved in either ethanol (“EtOH”) or methanol (“MeOH”) as stock solutions, as shown in Table 5. The non-brominated furanones were purchased from Sigma (St. Louis, Mo.). The furanone stocks were stored at 4° C.
(§3) MAE agar plates containing the same amounts of ethanol/methanol were also prepared as negative controls to eliminate any solvent effects. The plates were prepared using either 90 mm or 60 mm petri dishes and were stored inverted at 4° C. until use.
(§4) Different concentrations of furanones were studied to compare their antifungal activities. The plates were inoculated with the six fungal strains using a platinum loop and were incubated upside down at 30° C. for 7 days to monitor the growth. The initial screening was performed using a single 60 μg/mL furanone concentration.

[2] = test system: Gloeophyllum trabeum strain GT599; assay: Fungal growth on MEA plates with furanone; type: cell-based; design: key to growth on plate, GT599: −: No growth was observed; +: normal growth was seen; conditions: for growth on plate, GT599: 60 μg/mL, 7 days at 30° C.; for growth inhibition test, inhibitory concentration, GT599: tested at 1, 5, 30, 60 μg/mL, 7 days
Protocol: as §1, §2, §3, §4

[3] = test system: Chaetomium globosum wildtype strain (CG); assay: Fungal growth on MEA plates with furanone; type: cell-based; design: key to growth on plate, CG: −: No growth was observed; +: normal growth was seen; conditions: for growth on plate, CG: 60 μg/mL, 7 days at 30° C.; for growth inhibition test, inhibitory concentration, CG: tested at 1, 5, 30, 60 μg/mL, 7 days
Protocol: as §1, §2, §3, §4

[4] = test system: Chaetomium globosum CG572; assay: Fungal growth on MEA plates with furanone; type: cell-based; design: key to growth on plate, CG572: −: No growth was observed; +: normal growth was seen; conditions: for growth on plate, CG572: 60 μg/mL, 7 days at 30° C.; for growth inhibition test, inhibitory concentration, CG572: tested at 1, 5, 30, 60 μg/mL, 7 days
Protocol: as §1, §2, §3, §4

[5] = test system: Trametes versicolor strain TV7B2-59; assay: Fungal growth on MEA plates with furanone; type: cell-based; design: key to growth on plate, TV7B2-59: −: No growth was observed; +: normal growth was seen; conditions: for growth on plate, TV7B2-59: 60 μg/mL, 7 days at 30° C.; for growth inhibition test, inhibitory concentration, TV7B2-59: tested at 1, 5, 30, 60 μg/mL, 7 days
Protocol: as §1, §2, §3, §4

[6] = test system: Trametes versicolor strain TV57MAD277; assay: Fungal growth on MEA plates with furanone; type: cell-based; design: key to growth on plate, TV57MAD277: −: No growth was observed; +: normal growth was seen; conditions: for growth on plate, TV57MAD277: 60 μg/mL, 7 days at 30° C.; for growth inhibition test, inhibitory concentration, TV57MAD277: tested at 1, 5, 30, 60 μg/mL, 7 days
Protocol: as §1, §2, §3, §4

[7] = test system: P. aeruginosa strain PAO1; assay: Microplate based planktonic growth assay of P. aeruginosa; type: cell-based, Pseudomonas aeruginosa; conditions: for reduction of specific growth rate compared to furanone-free control: planktonic growth
Protocol: The antimicrobial activities of furanones on the planktonic growth of P. aeruginosa strain PAO1 was examined using a microplate based growth assay. An overnight culture of the strain grown in LB medium at 30° C. was used to inoculate M63 minimal medium supplemented with furanones at 0, 30 or 60 μg/mL to an optical density at 600 nm (OD600) of 0.05 in 96-well plates. The plates were then incubated at 30° C. with shaking at 200 rpm. The reading of OD600 was measured every 60 minutes for six hours using a microplate reader (ELx808, BioTek Instruments). Six replicates were tested for every sample. The synthesis of the brominated furanones, the structures of which are shown in FIGS. 1A and 1B, was according to Example 1.

[8] = test system: P. aeruginosa strain PAO1 biofilm formation; assay: Microplate-based biofilm assay (crystal violet, OD540) of P. aeruginosa; type: cell-based, Pseudomonas aeruginosa; conditions: 24 hours
Protocol: A microplate-based biofilm assay was used to further investigate whether furanones inhibit biofilm formation of P. aeruginosa strain PAO1. For this biofilm assay the strain was grown at 30° C. without shaking in M63 minimal medium containing 13.6 g/L KH2PO4, 2 g/L (NH4)2SO4, 0.5 mg/L FeSO4, 0.12 g/L MgSO4, 5 g/L vitamin free casamino acids and 5 g/L glucose (pH 7.0). The synthesis of the brominated furanones, the structures of which are shown in FIGS. 1A and 1B, was according to Example 1.
The overnight culture of P. aeruginosa was used to inoculate fresh M63 medium supplemented with furanones (0, 30 or 60 μg/mL) to an OD600 of 0.05 in 96-well plates. Four replicates were tested for each condition. The plates were incubated at 30° C. without shaking for 24 hours. The biofilm mass was quantified by following the protocol described previously. Briefly, the planktonic cells were carefully removed by pipetting and the plates with biofilms were washed three times with deionized H2O and dried by gently patting on a piece of paper towel. To quantify biofilms, the plates were stained with 0.1% crystal violet and incubated for 20 minutes at room temperature. The plates were then washed three times with deionized H2O to remove extra dyes. An OD540 was measured to quantify the biofilm on the bottom of each well.

[9] = test system: Candida albicans strain SC5341; assay: C. albicans growth curves in SD medium with furanones (96-well plates, OD600); type: cell-based; conditions: tested 2.5, 5, 10, 20 μg/mL
Protocol: To evaluate the effects of furanones on fungal growth, C. albicans was grown in a synthetic dextrose (“SD”) medium supplemented with 0, 2.5, 5, 10, or 20 μg/mL of one of eight different brominated furanones and […] furanones (BF1, BF8, BF9, BF11, BF12, BF14, NF1, NF2, or NF3).
The Candida albicans strain SC5341 used in this study was provided by Dr. Sean Palecek from the University of Wisconsin-Madison. C. albicans was routinely grown overnight at 30° C. and shaken at 200 rpm in a SD medium containing 0.67% (wt/vol) yeast nitrogen base without amino acids and 2% (wt/vol) dextrose, which was buffered with 0.165 M morpholinepropanesulfonic acid (MOPS, Sigma), and pH-adjusted to 7.0 with solid NaOH. The overnight culture was then sub-cultured in 25 mL of fresh SD medium to an initial optical density at 600 nm (OD600) of 0.005 and grown till the OD600 reached 1.0. The OD600 values were measured using a Spectronic GENESYS 5 UV-Vis spectrophotometer (Thermo Fisher Scientific®, Waltham, Mass.). This culture was used to inoculate sterile 96-well plates (Costar® No. 9017, Corning®, Corning, N.Y.) containing SD medium supplemented with furanones at different concentrations (0, 2.5, 5, 10, 20 μg/mL) to an OD600 of 0.06 in at least duplicates. The BF1, 8, 9, 11, 12, 14 and NF1-3 compounds were dissolved in ethanol at a concentration of 20 mg/mL. The BF10 compound was dissolved in methanol at a concentration of 20 mg/mL. The amounts of methanol and ethanol were adjusted to be the same for each sample to eliminate the effects of solvents. The samples were then incubated at 30° C. with shaking at 200 rpm, and the OD600 in each well was measured at 0, 4, 7, 17, and 42 hours after inoculation, using an ELx808™ Absorbance Microplate Reader (BioTek Instruments® Inc., Winooski, Vt.).

[10] = test system: six fungal strains (Gloeophyllum trabeum, Chaetomium globosum, Trametes versicolor); assay: Fungal growth on MEA plates with furanone, statements for all six strains; type: cell-based; conditions: for growth inhibition of the six fungal strains, comparison: 1 to 60 μg/mL
Protocol: as §1, §2, §3, §4

E. coli = E. coli growth inhibition (results not shown); type: cell-based

For O=C1C=C(CBr)C(=O)O1 [BF15, 3-(bromomethyl)-2,5-furandione], the “growth on plate, GT598” value [1] was “−”, the “growth on plate, GT599” value [2] was “−” and the “growth on plate, CG” value [3] was “−”. The “growth on plate, CG572” value [4] was “−”, the “growth on plate, TV7B2-59” value [5] was “−” and the “growth on plate, TV57MAD277” value [6] was “−”.
In the case of CC1=C(Br)C(C(Br)Br)OC1=O (stereo not drawn) [BF13, 4-bromo-5-(dibromomethyl)-3-methylfuran-2(5Br)-one], the “inhibitory effect on planktonic growth” value ([7]; 30 μg/mL) is reported as “did not exhibit significant inhibitory effects”, the “inhibition of biofilm formation” value ([8]; 30 μg/mL) is reported as “significantly inhibited” and the “inhibition of biofilm formation” value ([8]; 60 μg/mL) is reported as “significantly inhibited”. For the same molecule, the “growth inhibition test, inhibitory concentration, GT598” value (shortened to “growth inhibition test … GT598”) [1] was 60 µg/mL, the “growth inhibition test, inhibitory concentration, GT599” value (“growth inhibition test … GT599” below) [2] was 60 µg/mL and the “growth inhibition test, inhibitory concentration, CG” value [3] was 60 µg/mL. For the same molecule, the “growth inhibition test, inhibitory concentration, CG572” value (from here on “growth inhibition test … CG572”) [4] was 60 µg/mL, the “growth inhibition test, inhibitory concentration, TV7B2-59” value (shortened to “growth inhibition test … TV7B2-59”) [5] was 60 µg/mL and the “growth inhibition test, inhibitory concentration, TV57MAD277” value (shortened to “growth inhibition test … TV57MAD277”) [6] was 5 µg/mL.
With CC1=CC(C)OC1=O (stereo not drawn) [NF3, 3,5-Dimethylfuran-2(5H)-one, reference compound] the “inhibitory effect on planktonic growth” value ([7]; 30 μg/mL) was “did not exhibit significant inhibitory effects”.
With CC1=C(Br)C(C(Br)Br)OC1=O (stereo not drawn) [BF14, 4-bromo-5-(dibromomethyl)-3-methylfuran-2(5H)-one] the “lowest concentration showing growth inhibition” value [9] was 20 µg/mL, the “inhibitory effect on planktonic growth” value ([7]; 30 μg/mL) was “did not exhibit significant inhibitory effects” and the “inhibition of biofilm formation” value ([8]; 30 and 60 μg/mL) was “non-inhibitory”.
In the case of COC1=CC(=O)OC1 [NF2, 4-Methoxy-2(5H)-furanone; IUPAC: 4-methoxy-2(5H)-furanone, reference compound], the “growth inhibition of the six fungal strains” value ([10]; 60 μg/mL, 7 days) is reported as “did not show any apparent inhibition”.
For O=C1O/C(=C\Br)C(Br)=C1CBr [BF12, 4-bromo-3-(bromomethyl)-5Z-(bromomethylene)furan-2-one], the “growth inhibition of E. coli” value (E. coli) was “significantly inhibit”, the “reduction of specific growth rate compared to furanone-free control” value (“reduction … to furanone-free control” for short) ([7]; 30 μg/mL) was 91.2% and the “reduction … to furanone-free control” value ([7]; 60 μg/mL) was 100%. The “inhibition of biofilm formation” value ([8]; 30 μg/mL) was “significantly inhibited”, the “inhibition of biofilm formation” value ([8]; 60 μg/mL) was “significantly inhibited” and the “growth inhibition test … GT598” value [1] was 1 µg/mL. The “growth inhibition test … GT599” value [2] was 5 µg/mL, the “growth inhibition test, inhibitory concentration, CG” value [3] was 1 µg/mL and the “growth inhibition test … CG572” value [4] was 5 µg/mL. For the same molecule, the “growth inhibition test … TV7B2-59” value [5] was 5 µg/mL, the “growth inhibition test … TV57MAD277” value [6] was 5 µg/mL and the “growth inhibition of the six fungal strains, comparison” value [10] was “most significant inhibition”.
O=C1OC(=C(Br)Br)C=C1CBr [BF11, 3-(bromomethyl)-5-(dibromomethylene)furan-2-one] was tested, and the “growth inhibition of E. coli” value (E. coli) was “significantly inhibit”, the “reduction … to furanone-free control” value ([7]; 30 μg/mL) was 27.3% and the “reduction … to furanone-free control” value ([7]; 60 μg/mL) was 65.0%. For the same molecule, the “inhibition of biofilm formation” value ([8]; 30 μg/mL) was “significantly inhibited”, the “inhibition of biofilm formation” value ([8]; 60 μg/mL) was “significantly inhibited” and the “growth on plate, GT598” value [1] was “−”. For the same molecule, the “growth inhibition test … GT598” value [1] was 1 µg/mL, the “growth on plate, GT599” value [2] was “−” and the “growth inhibition test … GT599” value [2] was 5 µg/mL. For the same molecule, the “growth on plate, CG” value [3] was “−”, the “growth inhibition test, inhibitory concentration, CG” value [3] was 5 µg/mL and the “growth on plate, CG572” value [4] was “−”. The “growth inhibition test … CG572” value [4] was 5 µg/mL, the “growth on plate, TV7B2-59” value [5] was “−” and the “growth inhibition test … TV7B2-59” value [5] was 5 µg/mL. For the same molecule, the “growth on plate, TV57MAD277” value [6] was “−”, the “growth inhibition test … TV57MAD277” value [6] was 5 µg/mL and the “growth inhibition of the six fungal strains, comparison” value [10] was “most significant inhibition”.
CC1=CC(=O)OC1=O [NF1, Citraconic anhydride; IUPAC: 3-methyl-2,5-furandione, reference compound] was tested, and the “inhibitory effect on planktonic growth” value ([7]; 30 μg/mL) was “did not exhibit significant inhibitory effects”, the “growth inhibition test … GT598” value [1] was 60 µg/mL and the “growth inhibition test … GT599” value [2] was 60 µg/mL. For the same molecule, the “growth inhibition test, inhibitory concentration, CG” value [3] was 60 µg/mL, the “growth inhibition test … CG572” value [4] was 60 µg/mL and the “growth inhibition test … TV7B2-59” value [5] was 60 µg/mL. For the same molecule, the “growth inhibition test … TV57MAD277” value [6] was 60 µg/mL.
